Test results reported in US12275731B2, “Azaindole inhibitors of wild-type and mutant forms of LRRK2” (DANA-FARBER CANCER INSTITUTE, INC., priority 2018, dated 2025).

How the values were obtained:
Experiment in all cases: KinomeScan profiling
Format in all cases: binding
CSNK1A1 = CSNK1A1 (Homo sapiens, UniProt P48729); details: CSNK1A1, 1 μM; read-out: % control
Method in brief: (§1)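 Test agents were profiled at a single concentration of 1 μM (DMSO vehicle) on a near-complete set of 468 kinases. Signal is reported relative to vehicle (100%) and a fully displacing control (0%).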

LATS1 = target: T1, LATS1 (Homo sapiens, UniProt O95835); details: LATS1, 1 μM; read-out: % control
T1 construct: purchased KinomeScan®
T1 sequence (O95835 1-1130): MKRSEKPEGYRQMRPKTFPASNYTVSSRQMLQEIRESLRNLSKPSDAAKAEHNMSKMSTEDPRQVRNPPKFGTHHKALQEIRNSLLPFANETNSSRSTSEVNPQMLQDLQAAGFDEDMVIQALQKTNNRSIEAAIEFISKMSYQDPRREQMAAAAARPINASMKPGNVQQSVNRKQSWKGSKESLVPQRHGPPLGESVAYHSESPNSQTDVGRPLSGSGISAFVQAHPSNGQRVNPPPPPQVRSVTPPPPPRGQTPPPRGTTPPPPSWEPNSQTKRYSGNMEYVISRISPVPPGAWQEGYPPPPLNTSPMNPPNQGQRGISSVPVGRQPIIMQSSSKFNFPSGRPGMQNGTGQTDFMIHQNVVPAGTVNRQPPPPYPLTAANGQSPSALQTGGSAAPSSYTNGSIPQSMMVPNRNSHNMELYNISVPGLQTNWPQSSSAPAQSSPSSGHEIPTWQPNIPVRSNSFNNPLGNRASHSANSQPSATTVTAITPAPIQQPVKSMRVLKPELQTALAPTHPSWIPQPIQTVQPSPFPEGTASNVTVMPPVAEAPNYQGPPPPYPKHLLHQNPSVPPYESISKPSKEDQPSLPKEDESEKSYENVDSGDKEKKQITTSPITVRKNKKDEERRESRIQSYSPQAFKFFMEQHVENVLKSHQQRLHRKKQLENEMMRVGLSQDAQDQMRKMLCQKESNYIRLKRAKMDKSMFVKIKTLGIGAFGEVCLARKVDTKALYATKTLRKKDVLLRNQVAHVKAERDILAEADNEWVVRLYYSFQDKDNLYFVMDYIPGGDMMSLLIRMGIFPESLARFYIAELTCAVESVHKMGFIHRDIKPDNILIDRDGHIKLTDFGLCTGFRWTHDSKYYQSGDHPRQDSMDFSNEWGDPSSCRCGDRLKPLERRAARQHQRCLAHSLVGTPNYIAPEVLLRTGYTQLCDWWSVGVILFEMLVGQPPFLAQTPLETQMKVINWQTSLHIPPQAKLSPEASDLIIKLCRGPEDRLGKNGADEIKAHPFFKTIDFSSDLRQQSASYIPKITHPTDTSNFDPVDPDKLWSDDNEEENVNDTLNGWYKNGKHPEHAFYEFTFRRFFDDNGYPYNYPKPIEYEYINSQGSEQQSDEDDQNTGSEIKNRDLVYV
Method in brief: as §1

MYO3A = MYO3A (Homo sapiens, UniProt Q8NEV4); details: read-out: % control
Sequence of MYO3A (Q8NEV4 whole entry): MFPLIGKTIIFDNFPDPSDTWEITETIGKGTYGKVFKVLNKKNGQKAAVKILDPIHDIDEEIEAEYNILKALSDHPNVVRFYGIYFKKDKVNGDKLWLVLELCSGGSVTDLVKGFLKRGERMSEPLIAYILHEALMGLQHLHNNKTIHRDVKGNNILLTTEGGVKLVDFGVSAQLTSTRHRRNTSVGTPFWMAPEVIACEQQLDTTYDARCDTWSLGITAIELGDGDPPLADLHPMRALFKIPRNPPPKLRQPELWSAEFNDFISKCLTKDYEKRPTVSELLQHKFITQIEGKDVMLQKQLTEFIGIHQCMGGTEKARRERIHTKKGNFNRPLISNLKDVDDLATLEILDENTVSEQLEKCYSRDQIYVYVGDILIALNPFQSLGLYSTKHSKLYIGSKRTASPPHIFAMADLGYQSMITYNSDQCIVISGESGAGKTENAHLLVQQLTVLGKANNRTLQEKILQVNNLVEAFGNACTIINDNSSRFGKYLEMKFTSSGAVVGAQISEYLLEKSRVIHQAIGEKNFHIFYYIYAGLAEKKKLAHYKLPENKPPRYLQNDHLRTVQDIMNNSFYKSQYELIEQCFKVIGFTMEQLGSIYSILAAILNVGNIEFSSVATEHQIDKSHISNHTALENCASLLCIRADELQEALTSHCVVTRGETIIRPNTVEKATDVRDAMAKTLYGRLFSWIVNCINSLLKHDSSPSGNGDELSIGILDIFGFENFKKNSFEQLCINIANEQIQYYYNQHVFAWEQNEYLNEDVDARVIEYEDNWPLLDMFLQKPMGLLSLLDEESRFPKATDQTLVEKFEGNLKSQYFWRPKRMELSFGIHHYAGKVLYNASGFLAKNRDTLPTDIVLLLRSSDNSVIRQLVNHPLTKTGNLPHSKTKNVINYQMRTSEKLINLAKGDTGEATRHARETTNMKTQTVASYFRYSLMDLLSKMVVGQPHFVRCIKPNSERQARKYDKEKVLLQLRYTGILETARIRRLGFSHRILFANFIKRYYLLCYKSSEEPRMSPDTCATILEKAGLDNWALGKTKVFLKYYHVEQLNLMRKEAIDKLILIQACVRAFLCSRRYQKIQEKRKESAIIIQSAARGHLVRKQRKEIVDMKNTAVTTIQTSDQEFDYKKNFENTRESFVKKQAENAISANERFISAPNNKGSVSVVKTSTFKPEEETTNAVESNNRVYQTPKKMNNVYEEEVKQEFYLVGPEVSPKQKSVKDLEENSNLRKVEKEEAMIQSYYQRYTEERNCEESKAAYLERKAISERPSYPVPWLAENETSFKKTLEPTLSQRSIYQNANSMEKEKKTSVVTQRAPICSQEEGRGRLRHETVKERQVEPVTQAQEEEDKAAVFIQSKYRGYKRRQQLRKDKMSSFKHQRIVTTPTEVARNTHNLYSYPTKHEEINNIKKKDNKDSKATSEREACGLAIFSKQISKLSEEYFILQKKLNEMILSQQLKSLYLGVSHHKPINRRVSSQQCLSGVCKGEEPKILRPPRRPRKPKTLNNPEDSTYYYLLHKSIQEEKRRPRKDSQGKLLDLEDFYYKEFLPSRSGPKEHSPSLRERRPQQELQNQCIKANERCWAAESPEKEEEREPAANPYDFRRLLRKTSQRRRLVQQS
Method in brief: as §1

[1] = target: T2, RSK4(Kin.Dom.2-C-terminal) (Homo sapiens, UniProt Q9UK32); details: read-out: % control
T2 construct: RSK4(Kin.Dom.2-C-terminal)
T2 sequence (Q9UK32 426-683 limits assumed): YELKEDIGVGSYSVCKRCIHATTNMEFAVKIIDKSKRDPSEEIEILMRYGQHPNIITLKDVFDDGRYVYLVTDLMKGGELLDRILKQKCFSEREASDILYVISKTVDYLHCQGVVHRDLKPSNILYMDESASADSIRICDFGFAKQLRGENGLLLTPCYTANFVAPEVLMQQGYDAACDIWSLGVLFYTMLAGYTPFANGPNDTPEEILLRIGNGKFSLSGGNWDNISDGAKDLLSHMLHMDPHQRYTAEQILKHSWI
Method in brief: as §1

STK33 = target: T3, STK33 (Homo sapiens, UniProt Q9BYT3); details: STK33, 1 μM; read-out: % control
T3 construct: purchased KinomeScan® (panel service)
T3 sequence (Q9BYT3 whole entry): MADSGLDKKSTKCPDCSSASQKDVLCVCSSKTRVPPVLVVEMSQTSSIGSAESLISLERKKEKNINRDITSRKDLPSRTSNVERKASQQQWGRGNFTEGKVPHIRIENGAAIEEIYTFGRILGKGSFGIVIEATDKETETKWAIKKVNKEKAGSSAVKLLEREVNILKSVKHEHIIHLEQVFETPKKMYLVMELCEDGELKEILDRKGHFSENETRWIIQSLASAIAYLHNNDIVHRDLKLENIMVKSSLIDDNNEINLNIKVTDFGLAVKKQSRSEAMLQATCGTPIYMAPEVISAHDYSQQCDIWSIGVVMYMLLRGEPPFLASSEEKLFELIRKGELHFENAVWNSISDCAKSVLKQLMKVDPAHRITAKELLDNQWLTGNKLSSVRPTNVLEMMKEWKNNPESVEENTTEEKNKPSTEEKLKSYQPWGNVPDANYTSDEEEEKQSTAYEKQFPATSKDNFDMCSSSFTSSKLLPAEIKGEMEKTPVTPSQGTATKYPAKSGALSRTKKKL
Method in brief: as §1

TSSK3 = target: T4, TSSK3 (Homo sapiens, UniProt Q96PN8); details: TSSK3, 1 μM; read-out: % control
T4 sequence (Q96PN8 1-268): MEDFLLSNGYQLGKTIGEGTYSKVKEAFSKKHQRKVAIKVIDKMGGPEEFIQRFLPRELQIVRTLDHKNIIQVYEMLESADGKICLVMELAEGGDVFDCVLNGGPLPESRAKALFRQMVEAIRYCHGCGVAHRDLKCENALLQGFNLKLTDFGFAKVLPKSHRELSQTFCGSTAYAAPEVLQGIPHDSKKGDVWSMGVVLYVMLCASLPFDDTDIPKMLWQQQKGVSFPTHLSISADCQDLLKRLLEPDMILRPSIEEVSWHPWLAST
Method in brief: as §1

Sequence of CSNK1A1 (P48729 whole entry): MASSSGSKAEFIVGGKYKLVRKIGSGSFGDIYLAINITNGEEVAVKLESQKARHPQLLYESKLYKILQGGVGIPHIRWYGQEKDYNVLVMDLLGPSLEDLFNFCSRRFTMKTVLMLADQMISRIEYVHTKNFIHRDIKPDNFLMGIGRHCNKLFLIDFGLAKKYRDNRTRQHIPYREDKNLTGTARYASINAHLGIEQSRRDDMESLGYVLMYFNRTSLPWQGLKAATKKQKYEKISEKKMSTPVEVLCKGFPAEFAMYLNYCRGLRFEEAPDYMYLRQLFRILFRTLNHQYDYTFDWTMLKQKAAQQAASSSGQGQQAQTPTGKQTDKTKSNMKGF

`CNc1c(-c2cnn([C@H]3CCN(C(C)=O)C[C@@H]3F)c2)cnc2[nH]cc(Cl)c12` [Compound 77, 1-((3S,4S)-4-(4-(3-chloro-4-(methylamino)-1H-pyrrolo[2,3-b]pyridin-5-yl)-1H-pyrazol-1-yl)-3-fluoropiperidin-1-yl)ethan-1-one] showed a remaining binding at 1 µM (CSNK1A1) of 96%, a remaining binding at 1 µM (LATS1) of 91% and a remaining binding at 1 µM (MYO3A) of 69%. It also gave a remaining binding at 1 µM [1] of 98%, a remaining binding at 1 µM (STK33) of 100% and a remaining binding at 1 µM (TSSK3) of 65%.
With `CNc1c(-c2ccc(C(=O)N3CCC(N4CCOCC4)CC3)cc2)cnc2[nH]cc(Cl)c12` [Compound 96, (4-(3-chloro-4-(methylamino)-1H-pyrrolo[2,3-b]pyridin-5-yl)phenyl)(4-morpholinopiperidin-1-yl)methanone] the remaining binding at 1 µM (CSNK1A1) was 100%, the remaining binding at 1 µM (LATS1) was 100% and the remaining binding at 1 µM (MYO3A) was 64%. The remaining binding at 1 µM [1] was 91%, the remaining binding at 1 µM (STK33) was 100% and the remaining binding at 1 µM (TSSK3) was 45%.
In the case of `O=C(c1ccc(-c2cnc3[nH]cc(Cl)c3c2NC2CCCC2)cc1)N1CCC(N2CCOCC2)CC1` [Compound 101, (4-(3-chloro-4-(cyclopentylamino)-1H-pyrrolo[2,3-b]pyridin-5-yl)phenyl)(4-morpholinopiperidin-1-yl)methanone], the remaining binding at 1 µM (CSNK1A1) is reported as 89%, the remaining binding at 1 µM (LATS1) is reported as 100% and the remaining binding at 1 µM (MYO3A) is reported as 100%. The remaining binding at 1 µM [1] was 88%, the remaining binding at 1 µM (STK33) was 100% and the remaining binding at 1 µM (TSSK3) was 98%.
